Measurements published in US8435980B2 (AbbVie Inc., priority 2009, dated 2013).

Target: T1, Cdc7 (BEV coexpressed huCDC7/DBF4) (Homo sapiens, UniProt O00311)
T1 construct: made in house; host or cells: BEV (baculovirus expression vector) co-expression; insect cells are implied but no cell line is named
Assay: Cdc7 enzyme inhibition assay ([33P]ATP, biotinylated peptide substrate, FlashPlate)
Type: biochemical
Conditions: Table 3; enzyme inhibition data (Ki)
Method: Cdc7 (BEV coexpressed huCDC7/DBF4) is prepared internally. Cdc7 assays are conducted as follows with final concentrations as listed. […] Reactions are quenched after 1 hr by the addition of 90 μL stop buffer (50 mM EDTA, 2M NaCl). […] (Ki) for exemplary compounds.

T1 sequence (O00311 whole entry): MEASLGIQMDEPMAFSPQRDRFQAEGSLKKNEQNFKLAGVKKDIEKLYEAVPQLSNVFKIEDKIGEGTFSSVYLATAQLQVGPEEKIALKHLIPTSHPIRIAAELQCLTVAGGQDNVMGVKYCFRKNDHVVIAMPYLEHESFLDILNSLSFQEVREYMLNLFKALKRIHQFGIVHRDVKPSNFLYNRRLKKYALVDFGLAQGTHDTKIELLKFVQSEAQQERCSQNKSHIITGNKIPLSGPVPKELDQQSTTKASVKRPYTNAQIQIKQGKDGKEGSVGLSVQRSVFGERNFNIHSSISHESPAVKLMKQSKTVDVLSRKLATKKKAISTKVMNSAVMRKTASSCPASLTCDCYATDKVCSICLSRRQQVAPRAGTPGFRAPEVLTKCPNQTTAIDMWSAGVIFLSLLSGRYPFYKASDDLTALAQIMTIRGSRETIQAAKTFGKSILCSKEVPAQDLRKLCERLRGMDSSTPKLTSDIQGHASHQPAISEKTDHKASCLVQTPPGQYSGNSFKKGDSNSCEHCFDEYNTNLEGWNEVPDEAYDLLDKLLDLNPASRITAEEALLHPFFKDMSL
T1 sequence (Q9UBU7 whole entry partner): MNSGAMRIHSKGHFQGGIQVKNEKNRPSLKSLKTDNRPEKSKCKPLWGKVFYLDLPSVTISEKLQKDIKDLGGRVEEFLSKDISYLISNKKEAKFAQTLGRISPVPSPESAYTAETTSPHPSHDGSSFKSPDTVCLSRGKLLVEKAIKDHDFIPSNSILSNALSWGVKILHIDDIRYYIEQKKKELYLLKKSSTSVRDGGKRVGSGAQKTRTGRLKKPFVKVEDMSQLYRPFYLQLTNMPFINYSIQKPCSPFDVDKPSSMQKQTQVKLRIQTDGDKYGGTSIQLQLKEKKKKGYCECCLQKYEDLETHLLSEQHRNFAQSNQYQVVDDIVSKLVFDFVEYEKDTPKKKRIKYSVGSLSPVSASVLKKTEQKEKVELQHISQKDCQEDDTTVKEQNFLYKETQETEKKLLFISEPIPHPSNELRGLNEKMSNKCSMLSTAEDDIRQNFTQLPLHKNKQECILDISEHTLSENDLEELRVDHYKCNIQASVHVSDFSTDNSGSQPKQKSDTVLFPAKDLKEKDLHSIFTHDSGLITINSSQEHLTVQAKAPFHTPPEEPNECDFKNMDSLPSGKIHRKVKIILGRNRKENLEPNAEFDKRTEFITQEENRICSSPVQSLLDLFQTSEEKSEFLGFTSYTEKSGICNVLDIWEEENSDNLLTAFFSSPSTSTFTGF

| SMILES | Ki [nM] |
| --- | --- |
| CC(C)(CNc1cc(-c2c[nH]c3ncccc23)cc(Cl)n1)CNS(=O)(=O)c1cccnc1 [Example 81, N-(3-{[6-chloro-4-(1H-pyrrolo[2,3-b]pyridin-3-yl)pyridin-2-yl]amino}-2,2-dimethylpropyl)pyridine-3-sulfonamide] | 10 to 100 |
| O=S(=O)(NCCNc1cc(-c2c[nH]c3ncccc23)cc(Cl)n1)C1CC1 [Example 89, N-(2-{[6-chloro-4-(1H-pyrrolo[2,3-b]pyridin-3-yl)pyridin-2-yl]amino}ethyl)cyclopropanesulfonamide] | < 10 |
| O=S(=O)(NCCNc1cc(-c2c[nH]c3ncccc23)cc(Cl)n1)c1cccnc1 [Example 90, N-(2-{[6-chloro-4-(1H-pyrrolo[2,3-b]pyridin-3-yl)pyridin-2-yl]amino}ethyl)pyridine-3-sulfonamide] | < 10 |
| Clc1cc(-c2c[nH]c3ncccc23)cc(NC2CCC2)n1 [Example 92, 6-chloro-N-cyclobutyl-4-(1H-pyrrolo[2,3-b]pyridin-3-yl)pyridin-2-amine] | < 10 |
| CN(C)[C@H]1CC[C@H](Nc2cc(-c3c[nH]c4ncccc34)cc(Cl)n2)CC1 [Example 93, trans-N′-[6-chloro-4-(1H-pyrrolo[2,3-b]pyridin-3-yl)pyridin-2-yl]-N,N-dimethylcyclohexane-1,4-diamine] | < 10 |
| CCN1CCCC(CNc2cc(-c3c[nH]c4ncccc34)cc(Cl)n2)C1 (stereo not drawn) [Example 94, 6-chloro-N-[(1-ethylpiperidin-3-yl)methyl]-4-(1H-pyrrolo[2,3-b]pyridin-3-yl)pyridin-2-amine] | < 10 |
| Clc1cc(-c2c[nH]c3ncccc23)cc(NCC2CCCN(C3CCC3)C2)n1 (stereo not drawn) [Example 95, 6-chloro-N-[(1-cyclobutylpiperidin-3-yl)methyl]-4-(1H-pyrrolo[2,3-b]pyridin-3-yl)pyridin-2-amine] | < 10 |
| Clc1cc(-c2c[nH]c3ncccc23)cc(NCC2CCCN(Cc3cccnc3)C2)n1 (stereo not drawn) [Example 96, 6-chloro-N-{[1-(pyridin-3-ylmethyl)piperidin-3-yl]methyl}-4-(1H-pyrrolo[2,3-b]pyridin-3-yl)pyridin-2-amine] | < 10 |
| CS(=O)(=O)N1CCCC(CNc2cc(-c3c[nH]c4ncccc34)cc(Cl)n2)C1 (stereo not drawn) [Example 97, 6-chloro-N-((1-(methylsulfonyl)piperidin-3-yl)methyl)-4-(1H-pyrrolo[2,3-b]pyridin-3-yl)pyridin-2-amine] | < 10 |
| CCNC(=O)N1CCCC(CNc2cc(-c3c[nH]c4ncccc34)cc(Cl)n2)C1 (stereo not drawn) [Example 98, 3-((6-chloro-4-(1H-pyrrolo[2,3-b]pyridin-3-yl)pyridin-2-ylamino)methyl)-N-ethylpiperidine-1-carboxamide] | < 10 |
| CNC(=O)N[C@H]1CC[C@H](Nc2cc(-c3c[nH]c4ncccc34)cc(Cl)n2)CC1 [Example 99, 1-(trans-4-{[6-chloro-4-(1H-pyrrolo[2,3-b]pyridin-3-yl)pyridin-2-yl]amino}cyclohexyl)-3-methylurea] | < 10 |
| CC(=O)N1CCCC(CNc2cc(-c3c[nH]c4ncccc34)cc(Cl)n2)C1 (stereo not drawn) [Example 100, 1-[3-({[6-chloro-4-(1H-pyrrolo[2,3-b]pyridin-3-yl)pyridin-2-yl]amino}methyl)piperidin-1-yl]ethanone] | < 10 |
| O=S(=O)(C1CC1)N1CCCC(CNc2cc(-c3c[nH]c4ncccc34)cc(Cl)n2)C1 (stereo not drawn) [Example 101, 6-chloro-N-{[1-(cyclopropylsulfonyl)piperidin-3-yl]methyl}-4-(1H-pyrrolo[2,3-b]pyridin-3-yl)pyridin-2-amine] | < 10 |
| O=C(C1CC1)N1CCCC(Nc2cc(-c3c[nH]c4ncccc34)cc(Cl)n2)C1 (stereo not drawn) [Example 102, (3-{[6-chloro-4-(1H-pyrrolo[2,3-b]pyridin-3-yl)pyridin-2-yl]amino}piperidin-1-yl)(cyclopropyl)methanone] | < 10 |
| Clc1cc(-c2c[nH]c3ncccc23)cc(NC2CCCC(NCC3CC3)C2)n1 (stereo not drawn) [Example 103, N-[6-chloro-4-(1H-pyrrolo[2,3-b]pyridin-3-yl)pyridin-2-yl]-N′-(cyclopropylmethyl)cyclohexane-1,3-diamine] | < 10 |
| Clc1cc(-c2c[nH]c3ncccc23)cc(NC2CCCN(C3CCC3)C2)n1 (stereo not drawn) [Example 104, 6-chloro-N-(1-cyclobutylpiperidin-3-yl)-4-(1H-pyrrolo[2,3-b]pyridin-3-yl)pyridin-2-amine] | < 10 |
| Clc1cc(-c2c[nH]c3ncccc23)cc(N[C@H]2CC[C@H](NC3CCC3)CC2)n1 [Example 105, trans-N-[6-chloro-4-(1H-pyrrolo[2,3-b]pyridin-3-yl)pyridin-2-yl]-N′-cyclobutylcyclohexane-1,4-diamine] | < 10 |
| O=C(N[C@H]1CC[C@H](Nc2cc(-c3c[nH]c4ncccc34)cc(Cl)n2)CC1)[C@@H]1CCN1 [Example 106, (2S)—N-(trans-4-{[6-chloro-4-(1H-pyrrolo[2,3-b]pyridin-3-yl)pyridin-2-yl]amino}cyclohexyl)azetidine-2-carboxamide] | < 10 |
| O=C(Nc1cc(-c2c[nH]c3ncccc23)cc(Cl)n1)c1cccnc1 [Example 107, N-[6-chloro-4-(1H-pyrrolo[2,3-b]pyridin-3-yl)pyridin-2-yl]pyridine-3-carboxamide] | < 10 |
| Clc1cc(-c2c[nH]c3ncccc23)cc(N[C@H]2CC[C@H](NCC3CC3)CC2)n1 [Example 109, trans-N-[6-chloro-4-(1H-pyrrolo[2,3-b]pyridin-3-yl)pyridin-2-yl]-N′-(cyclopropylmethyl)cyclohexane-1,4-diamine] | < 10 |
| O=C(Nc1cc(-c2c[nH]c3ncccc23)cc(Cl)n1)C1CCNCC1 [Example 112, N-[6-chloro-4-(1H-pyrrolo[2,3-b]pyridin-3-yl)pyridin-2-yl]piperidine-4-carboxamide] | < 10 |
| CC(=O)NCC(C)(C)CNc1cc(-c2c[nH]c3ncccc23)cc(Cl)n1 [Example 113, N-(3-{[6-chloro-4-(1H-pyrrolo[2,3-b]pyridin-3-yl)pyridin-2-yl]amino}-2,2-dimethylpropyl)acetamide] | < 10 |

Other lines, results leading:

| Ki [nM] | SMILES |
| --- | --- |
| < 10 | CCCN1CCC(C(=O)NC2CCCC(Nc3cc(-c4c[nH]c5ncccc45)cc(Cl)n3)C2)CC1 (stereo not drawn) [Example 70, N-(3-{[6-chloro-4-(1H-pyrrolo[2,3-b]pyridin-3-yl)pyridin-2-yl]amino}cyclohexyl)-1-propylpiperidine-4-carboxamide] |
| < 10 | O=C(NC1CCCC(Nc2cc(-c3c[nH]c4ncccc34)cc(Cl)n2)C1)c1cc[nH]n1 (stereo not drawn) [Example 71, N-(3-{[6-chloro-4-(1H-pyrrolo[2,3-b]pyridin-3-yl)pyridin-2-yl]amino}cyclohexyl)-1H-pyrazole-3-carboxamide] |
| < 10 | Clc1cc(-c2c[nH]c3ncccc23)cc(NC2CCCC(NCC3CCCNC3)C2)n1 (stereo not drawn) [Example 72, N-[6-chloro-4-(1H-pyrrolo[2,3-b]pyridin-3-yl)pyridin-2-yl]-N′-(piperidin-3-ylmethyl)cyclohexane-1,3-diamine] |
| < 10 | O=C(CNC(=O)c1ccccc1)NC1CCCC(Nc2cc(-c3c[nH]c4ncccc34)cc(Cl)n2)C1 (stereo not drawn) [Example 73, N-{2-[(3-{[6-chloro-4-(1H-pyrrolo[2,3-b]pyridin-3-yl)pyridin-2-yl]-amino}cyclohexyl)amino]-2-oxoethyl}benzamide] |
| < 10 | O=S(=O)(NC1CCCC(Nc2cc(-c3c[nH]c4ncccc34)cc(Cl)n2)C1)C1CC1 (stereo not drawn) [Example 76, N-(3-{[6-chloro-4-(1H-pyrrolo[2,3-b]pyridin-3-yl)pyridin-2-yl]amino}cyclohexyl)cyclopropanesulfonamide] |
| < 10 | CCCS(=O)(=O)NC1CCCC(Nc2cc(-c3c[nH]c4ncccc34)cc(Cl)n2)C1 (stereo not drawn) [Example 77, N-(3-{[6-chloro-4-(1H-pyrrolo[2,3-b]pyridin-3-yl)pyridin-2-yl]amino}cyclohexyl)propane-1-sulfonamide] |
| < 10 | Cc1ccc(S(=O)(=O)NC2CCCC(Nc3cc(-c4c[nH]c5ncccc45)cc(Cl)n3)C2)cc1 (stereo not drawn) [Example 78, N-(3-{[6-chloro-4-(1H-pyrrolo[2,3-b]pyridin-3-yl)pyridin-2-yl]amino}cyclohexyl)-4-methylbenzenesulfonamide] |
| < 10 | CCNC(=O)NC1CCCC(Nc2cc(-c3c[nH]c4ncccc34)cc(Cl)n2)C1 (stereo not drawn) [Example 79, 1-(3-{[6-chloro-4-(1H-pyrrolo[2,3-b]pyridin-3-yl)pyridin-2-yl]amino}cyclohexyl)-3-ethylurea] |
| < 10 | O=C(NC1CCCC1)NC1CCCC(Nc2cc(-c3c[nH]c4ncccc34)cc(Cl)n2)C1 (stereo not drawn) [Example 80, 1-(3-{[6-chloro-4-(1H-pyrrolo[2,3-b]pyridin-3-yl)pyridin-2-yl]amino}cyclohexyl)-3-cyclopentylurea] |
| < 10 | CC(C)(CNc1cc(-c2c[nH]c3ncccc23)cc(Cl)n1)CNS(=O)(=O)C1CC1 [Example 82, N-(3-{[6-chloro-4-(1H-pyrrolo[2,3-b]pyridin-3-yl)pyridin-2-yl]amino}-2,2-dimethylpropyl)cyclopropanesulfonamide] |
| < 10 | O=S(=O)(NC1CCCC(Nc2cc(-c3c[nH]c4ncccc34)cc(Cl)n2)C1)c1cccs1 (stereo not drawn) [Example 83, N-(3-{[6-chloro-4-(1H-pyrrolo[2,3-b]pyridin-3-yl)pyridin-2-yl]amino}cyclohexyl)thiophene-2-sulfonamide] |
| < 10 | CCCCC(=O)Nc1cc(-c2c[nH]c3ncccc23)cc(Cl)n1 [Example 84, N-[6-chloro-4-(1H-pyrrolo[2,3-b]pyridin-3-yl)pyridin-2-yl]pentanamide] |
| < 10 | O=C(Nc1cc(-c2c[nH]c3ncccc23)cc(Cl)n1)C1CCCCC1 [Example 85, N-[6-chloro-4-(1H-pyrrolo[2,3-b]pyridin-3-yl)pyridin-2-yl]cyclohexanecarboxamide] |
| < 10 | O=C(Nc1cc(-c2c[nH]c3ncccc23)cc(Cl)n1)c1ccccc1 [Example 86, N-[6-chloro-4-(1H-pyrrolo[2,3-b]pyridin-3-yl)pyridin-2-yl]benzamide] |
